From patent US20230270832A1, “MAGEA1 IMMUNOGENIC PEPTIDES, BINDING PROTEINS RECOGNIZING MAGEA1 IMMUNOGENIC PEPTIDES, AND USES THEREOF” (TScan Therapeutics, Inc., priority 2021, published 2023)

System: TCR-transduced T cells
Assay: Peptide-pulsed HLA-C*07:02 monoallelic HEK293T granzyme-activated fluorescent reporter cells co-cultured with TCR-transduced T cells
Type: cell-based, human
Protocol: Overlapping peptide sequences with a score >2.5 fold were used to predict MHC binding with NetMHC4.0 (available on the World Wide Web at cbs.dtu.dk) and the top predicted MHC binding peptides were synthesized (Genscript). Monoallelic C*07:02 HEK293T reporter cells were pulsed with serial dilutions 0-20,000 ng/ml of each peptide candidate for 1 hour and then co-cultured with TCR-transduced T cells (1-IN-32-39 or HN-32-41) at an E:T ratio of ˜1:1. After 4 hours, the cultures were harvested by pipetting and fluorescence of the reporter was detected using a CytoFLEX™ S instrument (Beckman Coulter). Additionally, monoallelic C*07:02 HEK293 suspension cells were pulsed with serial dilutions 0-500 pM of peptide VBFFFPSL (SEQ ID NO: 1) for 2 hours and then co-cultured with TCR-transduced T cells (HN-32-39 or HN-32-41) at an E:T ratio of 1:1 overnight. Cells were then harvested by pipetting and centrifuged at 2,000 rpm for 2 minutes. The supernatant was collected for IFNγ measurement using a human IFNγ 3rd generation single-plex assay (Protein Simple).

VRFFFPSL (listed as Homo sapiens) [VBFFFPSL]
immunogenicity in peptide validation (FIGS. 2D and 2E): most favorable immunogenicity | reactivity of the TCR-transduced T cells to peptide-pulsed reporter cells (epitope confirmation) (HLA-C*07:02 monoallelic HEK293T, granzyme-activated fluorescent reporter, FIGS. 2D and 2E left): minimal MAGEA1 epitope
